Measurements reported in the NIST ThermoML archive (doi:10.1016/j.fluid.2005.06.010).

Experiment: xn = mol fraction of the nth substance listed
Conditions: Fluid (supercritical or subcritical phases), Vibrating tube method

c1ccc2ccccc2c1 [naphthalene] + O=C=O
Conditions | mass density [kg/m3]
328.08 K, 11734 kPa, x1 = 0.0065 | 526.75
328.08 K, 11815 kPa, x1 = 0.0065 | 533.03
328.08 K, 11937 kPa, x1 = 0.0065 | 541.87
328.08 K, 12028 kPa, x1 = 0.0065 | 548.44
328.08 K, 12127 kPa, x1 = 0.0065 | 555.07
328.08 K, 12334 kPa, x1 = 0.0065 | 568.49
328.08 K, 12646 kPa, x1 = 0.0065 | 586.46
328.08 K, 13208 kPa, x1 = 0.0065 | 613.74
328.08 K, 13824 kPa, x1 = 0.0065 | 638.32
328.08 K, 14520 kPa, x1 = 0.0065 | 661.29
328.08 K, 15410 kPa, x1 = 0.0065 | 685.64
328.08 K, 16319 kPa, x1 = 0.0065 | 706.24
328.08 K, 17226 kPa, x1 = 0.0065 | 723.77
328.08 K, 18128 kPa, x1 = 0.0065 | 739.05
328.08 K, 19046 kPa, x1 = 0.0065 | 752.91
328.08 K, 20020 kPa, x1 = 0.0065 | 766.16
328.08 K, 21002 kPa, x1 = 0.0065 | 778.22
328.08 K, 21995 kPa, x1 = 0.0065 | 789.31
328.08 K, 22871 kPa, x1 = 0.0065 | 798.48
328.08 K, 23424 kPa, x1 = 0.0065 | 803.93
328.1 K, 10952 kPa, x1 = 0.0038 | 442.37
328.1 K, 11010 kPa, x1 = 0.0038 | 448.13
328.1 K, 11054 kPa, x1 = 0.0038 | 452.8
328.1 K, 11219 kPa, x1 = 0.0038 | 468.8
328.1 K, 11363 kPa, x1 = 0.0038 | 482.43
328.1 K, 11517 kPa, x1 = 0.0038 | 495.77
328.1 K, 11649 kPa, x1 = 0.0038 | 507.25
328.1 K, 11832 kPa, x1 = 0.0038 | 521.74
328.1 K, 11972 kPa, x1 = 0.0038 | 532.31
328.1 K, 12088 kPa, x1 = 0.0038 | 540.71
328.1 K, 12322 kPa, x1 = 0.0038 | 556.51
328.1 K, 12538 kPa, x1 = 0.0038 | 569.79
328.1 K, 12706 kPa, x1 = 0.0038 | 579.47
328.1 K, 12941 kPa, x1 = 0.0038 | 591.84
328.1 K, 13117 kPa, x1 = 0.0038 | 600.49
328.1 K, 13376 kPa, x1 = 0.0038 | 612.23
328.1 K, 13618 kPa, x1 = 0.0038 | 622.37
328.1 K, 13925 kPa, x1 = 0.0038 | 634.21
328.1 K, 14240 kPa, x1 = 0.0038 | 645.33
328.1 K, 14511 kPa, x1 = 0.0038 | 654.12
328.1 K, 14850 kPa, x1 = 0.0038 | 664.35
328.1 K, 15299 kPa, x1 = 0.0038 | 676.78
328.1 K, 15816 kPa, x1 = 0.0038 | 689.62
328.1 K, 16314 kPa, x1 = 0.0038 | 700.83
328.1 K, 16845 kPa, x1 = 0.0038 | 711.78
328.1 K, 17403 kPa, x1 = 0.0038 | 722.35
328.1 K, 18014 kPa, x1 = 0.0038 | 732.96
328.1 K, 18738 kPa, x1 = 0.0038 | 744.46
328.1 K, 19499 kPa, x1 = 0.0038 | 755.49
328.1 K, 20377 kPa, x1 = 0.0038 | 767.2
328.1 K, 21134 kPa, x1 = 0.0038 | 776.5
328.1 K, 22132 kPa, x1 = 0.0038 | 787.85
328.1 K, 23017 kPa, x1 = 0.0038 | 797.14
328.1 K, 24029 kPa, x1 = 0.0038 | 806.95
328.1 K, 25024 kPa, x1 = 0.0038 | 815.98
328.11 K, 15028 kPa, x1 = 0.0214 | 725.95
328.11 K, 15923 kPa, x1 = 0.0214 | 742.34
328.11 K, 17035 kPa, x1 = 0.0214 | 759.59
328.11 K, 18008 kPa, x1 = 0.0214 | 773.1
328.11 K, 19015 kPa, x1 = 0.0214 | 785.68
328.11 K, 20044 kPa, x1 = 0.0214 | 797.24
328.11 K, 21022 kPa, x1 = 0.0214 | 807.22
328.11 K, 22000 kPa, x1 = 0.0214 | 816.43
328.11 K, 23011 kPa, x1 = 0.0214 | 825.23
328.11 K, 24023 kPa, x1 = 0.0214 | 833.49
332.93 K, 18103 kPa, x1 = 0.0198 | 740.17
332.93 K, 19004 kPa, x1 = 0.0198 | 753.43
332.93 K, 20061 kPa, x1 = 0.0198 | 767.37
332.93 K, 21067 kPa, x1 = 0.0198 | 779.34
332.93 K, 22050 kPa, x1 = 0.0198 | 789.99
332.93 K, 23026 kPa, x1 = 0.0198 | 799.71
332.93 K, 23949 kPa, x1 = 0.0198 | 808.29
332.93 K, 24971 kPa, x1 = 0.0198 | 817.26
332.95 K, 12055 kPa, x1 = 0.0049 | 468.83
332.95 K, 13050 kPa, x1 = 0.0049 | 535.86
332.95 K, 14011 kPa, x1 = 0.0049 | 584.76
332.95 K, 14979 kPa, x1 = 0.0049 | 622.27
332.95 K, 16026 kPa, x1 = 0.0049 | 654.27
332.95 K, 17024 kPa, x1 = 0.0049 | 679.08
332.95 K, 18017 kPa, x1 = 0.0049 | 699.78
332.95 K, 18994 kPa, x1 = 0.0049 | 717.43
332.95 K, 20008 kPa, x1 = 0.0049 | 733.55
332.95 K, 21018 kPa, x1 = 0.0049 | 747.87
332.95 K, 22004 kPa, x1 = 0.0049 | 760.51
332.95 K, 23003 kPa, x1 = 0.0049 | 772.24
332.95 K, 24035 kPa, x1 = 0.0049 | 783.38
332.96 K, 13066 kPa, x1 = 0.0093 | 562.4
332.96 K, 14010 kPa, x1 = 0.0093 | 607.19
332.96 K, 14033 kPa, x1 = 0.0144 | 623.67
332.96 K, 15035 kPa, x1 = 0.0144 | 657.01
332.96 K, 15044 kPa, x1 = 0.0093 | 643.85
332.96 K, 15076 kPa, x1 = 0.0173 | 670.77
332.96 K, 16046 kPa, x1 = 0.0093 | 671.79
332.96 K, 16056 kPa, x1 = 0.0144 | 683.98
332.96 K, 16081 kPa, x1 = 0.0173 | 695.5
332.96 K, 17019 kPa, x1 = 0.0144 | 704.86
332.96 K, 17024 kPa, x1 = 0.0173 | 714.84
332.96 K, 17026 kPa, x1 = 0.0093 | 694.34
332.96 K, 17996 kPa, x1 = 0.0173 | 731.97
332.96 K, 18009 kPa, x1 = 0.0093 | 713.47
332.96 K, 18013 kPa, x1 = 0.0144 | 723.3
332.96 K, 18019 kPa, x1 = 0.0235 | 741.5
332.96 K, 19018 kPa, x1 = 0.0235 | 756.06
332.96 K, 19028 kPa, x1 = 0.0144 | 739.71
332.96 K, 19030 kPa, x1 = 0.0093 | 730.7
332.96 K, 19068 kPa, x1 = 0.0173 | 748.38
332.96 K, 19996 kPa, x1 = 0.0173 | 761.05
332.96 K, 20018 kPa, x1 = 0.0144 | 753.83
332.96 K, 20030 kPa, x1 = 0.0093 | 745.57
332.96 K, 20031 kPa, x1 = 0.0235 | 769.21
332.96 K, 20990 kPa, x1 = 0.0144 | 766.28
332.96 K, 21000 kPa, x1 = 0.0235 | 780.59
332.96 K, 21004 kPa, x1 = 0.0093 | 758.59
332.96 K, 21018 kPa, x1 = 0.0173 | 773.69
332.96 K, 21972 kPa, x1 = 0.0235 | 791.04
332.96 K, 21996 kPa, x1 = 0.0173 | 784.65
332.96 K, 22030 kPa, x1 = 0.0144 | 778.43
332.96 K, 22033 kPa, x1 = 0.0093 | 771.07
332.96 K, 22991 kPa, x1 = 0.0173 | 794.89
332.96 K, 22996 kPa, x1 = 0.0235 | 801.19
332.96 K, 23002 kPa, x1 = 0.0093 | 781.81
332.96 K, 23017 kPa, x1 = 0.0144 | 789
332.96 K, 23986 kPa, x1 = 0.0235 | 810.27
332.96 K, 23990 kPa, x1 = 0.0093 | 791.9
332.96 K, 23999 kPa, x1 = 0.0144 | 798.72
332.96 K, 24019 kPa, x1 = 0.0173 | 804.7
332.96 K, 24677 kPa, x1 = 0.0173 | 810.61
332.96 K, 24809 kPa, x1 = 0.0235 | 817.39
332.96 K, 24940 kPa, x1 = 0.0144 | 807.41
333 K, 12451 kPa, x1 = 0.0065 | 503.55
333 K, 13033 kPa, x1 = 0.0065 | 540.53
333 K, 13760 kPa, x1 = 0.0065 | 578.33
333 K, 14541 kPa, x1 = 0.0065 | 610.99
333 K, 15426 kPa, x1 = 0.0065 | 640.78
333 K, 16333 kPa, x1 = 0.0065 | 665.58
333 K, 17231 kPa, x1 = 0.0065 | 686.41
333 K, 18146 kPa, x1 = 0.0065 | 704.71
333 K, 19018 kPa, x1 = 0.0065 | 720.04
333 K, 20017 kPa, x1 = 0.0065 | 735.62
333 K, 21002 kPa, x1 = 0.0065 | 749.43
333 K, 22012 kPa, x1 = 0.0065 | 762.16
333 K, 23025 kPa, x1 = 0.0065 | 773.85
333 K, 24004 kPa, x1 = 0.0065 | 784.3
333 K, 25022 kPa, x1 = 0.0065 | 794.34
333.02 K, 12620 kPa, x1 = 0.0038 | 505.57
333.02 K, 12810 kPa, x1 = 0.0038 | 517.8
333.02 K, 12997 kPa, x1 = 0.0038 | 529.34
333.02 K, 13183 kPa, x1 = 0.0038 | 540.11
333.02 K, 13406 kPa, x1 = 0.0038 | 552.35
333.02 K, 13640 kPa, x1 = 0.0038 | 564.51
333.02 K, 13893 kPa, x1 = 0.0038 | 576.62
333.02 K, 14134 kPa, x1 = 0.0038 | 587.16
333.02 K, 14390 kPa, x1 = 0.0038 | 597.75
333.02 K, 14768 kPa, x1 = 0.0038 | 612.29
333.02 K, 15159 kPa, x1 = 0.0038 | 625.81
333.02 K, 15535 kPa, x1 = 0.0038 | 637.78
333.02 K, 16027 kPa, x1 = 0.0038 | 652.03
333.02 K, 16469 kPa, x1 = 0.0038 | 663.57
333.02 K, 17018 kPa, x1 = 0.0038 | 676.71
333.02 K, 17622 kPa, x1 = 0.0038 | 689.78
333.02 K, 18197 kPa, x1 = 0.0038 | 701.13
333.02 K, 18835 kPa, x1 = 0.0038 | 712.75
333.02 K, 19606 kPa, x1 = 0.0038 | 725.55
333.02 K, 20350 kPa, x1 = 0.0038 | 736.76
333.02 K, 21107 kPa, x1 = 0.0038 | 747.32
333.02 K, 22018 kPa, x1 = 0.0038 | 758.99
333.02 K, 22977 kPa, x1 = 0.0038 | 770.32
333.02 K, 23992 kPa, x1 = 0.0038 | 781.31
333.02 K, 25039 kPa, x1 = 0.0038 | 791.79
